Results as given in US20160376237A1, “NOVEL PYRIDINE DERIVATIVES” (Hoffmann-La Roche Inc., priority 2014, published 2016).

Biological target: T1, human CB2 receptors (Homo sapiens, UniProt P34972)
T1 construct: expressed in transfected cells; host or cells: CHO cells
Test: cAMP assay
Assay type: cell-based
Protocol: CHO cells expressing human CB1 or CB2 receptors are seeded 17-24 hours prior to the experiment 50.000 cells per well in a black 96 well plate with flat clear bottom (Corning Costar #3904) in DMEM (Invitrogen No. 31331), 1×HT supplement, with 10% fetal calf serum and incubated at 5% CO2 and 37° C. in a humidified incubator. The growth medium was exchanged with Krebs Ringer Bicarbonate buffer with 1 mM IBMX and incubated at 30° C. for 30 min. Compounds were added to a final assay volume of 100 μl and incubated for 30 min at 30° C. Using the cAMP-Nano-TRF detection kit the assay (Roche Diagnostics) was stopped by the addition of 50 μl lysis reagent (Tris, NaCl, 1.5% Triton X100, 2.5% NP40, 10% NaN3) and 50 μl detection solutions ([…] mAb Alexa700-cAMP 1:[…] Ruthenium-2-AHA-cAMP) and shaken for 2 h at room temperature. The time-resolved energy transfer is measured by a TRF reader (Evotec Technologies GmbH), equipped with a ND:YAG laser as excitation source. The plate is measured twice with the excitation at 355 nm and at the emission with a delay of 100 ns and a gate of 100 ns, total exposure time 10 s at 730 (bandwidth 30 nm) or 645 nm (bandwidth 75 nm), respectively. The FRET signal is calculated as follows: FRET=T730-Alexa730-P(T645-B645) with P=Ru730-B730/Ru645-B645, where T730 is the test well measured at 730 nM, T645 is the test well measured at 645 nm, B730 and B645 are the buffer controls at 730 nm and 645 nm, respectively. cAMP content is determined from the function of a standard curve spanning from […] to 0.13 nM cAMP.
EC50 values were determined using Activity Base analysis (ID Business Solution, Limited).

T1 sequence (P34972 whole entry): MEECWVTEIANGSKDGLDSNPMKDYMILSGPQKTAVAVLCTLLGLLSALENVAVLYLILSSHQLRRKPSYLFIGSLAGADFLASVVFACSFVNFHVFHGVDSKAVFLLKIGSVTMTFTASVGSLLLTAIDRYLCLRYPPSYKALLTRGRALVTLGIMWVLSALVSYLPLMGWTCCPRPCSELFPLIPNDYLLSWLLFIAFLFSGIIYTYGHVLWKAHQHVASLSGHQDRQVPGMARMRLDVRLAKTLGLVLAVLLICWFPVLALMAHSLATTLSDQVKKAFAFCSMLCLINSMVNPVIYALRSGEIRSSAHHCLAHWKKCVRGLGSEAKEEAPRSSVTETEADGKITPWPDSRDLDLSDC

Row | SMILES | EC50 [nM]
1 | NC(=O)CC1(NC(=O)c2ccc(N3CCC4(C3)CC4(F)F)c(OCC3CC3)n2)COC1 (centres unmarked) [Example 32, N-[3-(2-Amino-2-oxoethyl)oxetan-3-yl]-6-(cyclopropylmethoxy)-5-(2,2-difluoro-5-azaspiro[2.4]heptan-5-yl)pyridine-2-carboxamide] | 60.2
2 | CC(C)C[C@H](NC(=O)c1ccc(N2CC(C)(F)C2)c(OCC2CC2)n1)C(N)=O [Example 33, N-[(2S)-1-Amino-4-methyl-1-oxopentan-2-yl]-6-(cyclopropylmethoxy)-5-(3-fluoro-3-methylazetidin-1-yl)pyridine-2-carboxamide] | 19.6
3 | CC1(F)CN(c2ccc(C(=O)N3CC(F)(F)C[C@H]3C(N)=O)nc2OCC2CC2)C1 [Example 34, (2S)-1-[6-(Cyclopropylmethoxy)-5-(3-fluoro-3-methylazetidin-1-yl)pyridine-2-carbonyl]-4,4-difluoropyrrolidine-2-carboxamide] | 11.4
4 | CC1(F)CN(c2ccc(C(=O)NC3(CC(N)=O)COC3)nc2OCC2CC2)C1 [Example 35, N-[3-(2-Amino-2-oxoethyl)oxetan-3-yl]-6-(cyclopropylmethoxy)-5-(3-fluoro-3-methylazetidin-1-yl)pyridine-2-carboxamide] | 213
5 | CC(C)C[C@H](NC(=O)c1ccc(N2CC(F)(C3CC3)C2)c(OCC2CC2)n1)C(N)=O [Example 36, N-[(2S)-1-Amino-4-methyl-1-oxopentan-2-yl]-5-(3-cyclopropyl-3-fluoroazetidin-1-yl)-6-(cyclopropylmethoxy)pyridine-2-carboxamide] | 20
6 | NC(=O)[C@@H]1CC(F)(F)CN1C(=O)c1ccc(N2CC(F)(C3CC3)C2)c(OCC2CC2)n1 [Example 37, (2S)-1-[5-(3-Cyclopropyl-3-fluoroazetidin-1-yl)-6-(cyclopropylmethoxy)pyridine-2-carbonyl]-4,4-difluoropyrrolidine-2-carboxamide] | 19.3
7 | NC(=O)CC1(NC(=O)c2ccc(N3CC(F)(C4CC4)C3)c(OCC3CC3)n2)COC1 [Example 38, N-[3-(2-Amino-2-oxoethyl)oxetan-3-yl]-5-(3-cyclopropyl-3-fluoroazetidin-1-yl)-6-(cyclopropylmethoxy)pyridine-2-carboxamide] | 48.3
8 | NC(=O)[C@@H]1CC(F)(F)CN1C(=O)c1ccc(OCC2CC2)c(-c2ccc(Cl)cc2)n1 [Example 39, (2S)-1-[6-(4-Chlorophenyl)-5-(cyclopropylmethoxy)pyridine-2-carbonyl]-4,4-difluoropyrrolidine-2-carboxamide] | 18
9 | Cc1nc(C(C)(C)NC(=O)c2ccc(OCC3CC3)c(-c3ccc(Cl)cc3)n2)no1 [Example 40, 6-(4-Chlorophenyl)-5-(cyclopropylmethoxy)-N-[2-(5-methyl-1,2,4-oxadiazol-3-yl)propan-2-yl]pyridine-2-carboxamide] | 16.9
10 | CCC(CC)(NC(=O)c1ccc(N2CC(F)(C3CC3)C2)c(OCC2CC2)n1)C(=O)NCCCF [Example 41, 5-(3-Cyclopropyl-3-fluoroazetidin-1-yl)-6-(cyclopropylmethoxy)-N-[3-(3-fluoropropylcarbamoyl)pentan-3-yl]pyridine-2-carboxamide] | 669
11 | CC(C)C[C@H](NC(=O)c1ccc(OCC2CC2)c(-c2ccc(Cl)cc2)n1)C(N)=O [Example 42, N-[(2S)-1-Amino-4-methyl-1-oxopentan-2-yl]-6-(4-chlorophenyl)-5-(cyclopropylmethoxy)pyridine-2-carboxamide] | 4.44
